T/C data for 20 compounds are collected here from PubChem BioAssay AID248 (DTP/NCI, 2004).

Several values for one entry are separate records, joined by “and”; a condition that tells them apart may be missing. Equal values may be shown once. Inconclusive results and toxic doses are left out.

The subject of the assay is L1210 leukemia ip in BDF1 mice, survival T/C. Briefly: NCI In Vivo Anticancer Drug Screen. Data for tumor model L1210 Leukemia (intraperitoneal) in B6D2F1 (BDF1) mice. Conditions: endpoint: mean survival time, higher = longer survival. Put shortly:
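Transplanted-tumor mice were given test agent; controls received vehicle only. Survival readings from the two groups were divided (treated over control).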

[1] abbreviates: dose: 100.0 mg/kg/injection, schedule: Q01DX001 (ip), vehicle: Klucel (hydroxypropylcellulose) (HPC).
[2] abbreviates: dose: 200.0 mg/kg/injection, schedule: Q01DX001 (ip), vehicle: Klucel (hydroxypropylcellulose) (HPC).
Where [3] appears, read: dose: 100.0 mg/kg/injection, schedule: Q01DX009 (ip), vehicle: saline with Tween-80.
Where [4] appears, read: dose: 200.0 mg/kg/injection, schedule: Q01DX009 (ip), vehicle: saline with Tween-80.
Where [5] appears, read: dose: 400.0 mg/kg/injection, schedule: Q01DX009 (ip), vehicle: saline with Tween-80.
Setting [6] is: dose: 100.0 mg/kg/injection, schedule: Q01DX009 (ip), vehicle: Klucel (hydroxypropylcellulose) (HPC).
Setting [7] is: dose: 200.0 mg/kg/injection, schedule: Q01DX009 (ip), vehicle: Klucel (hydroxypropylcellulose) (HPC).
The mark [8] stands for this setting: dose: 100.0 mg/kg/injection, schedule: Q01DX001 (ip), vehicle: saline.
Where [9] appears, read: dose: 200.0 mg/kg/injection, schedule: Q01DX001 (ip), vehicle: saline.
[10] abbreviates: dose: 400.0 mg/kg/injection, schedule: Q01DX001 (ip), vehicle: saline.
[11] abbreviates: dose: 25.0 mg/kg/injection, schedule: Q01DX009 (ip), vehicle: saline.
The mark [12] stands for this setting: dose: 50.0 mg/kg/injection, schedule: Q01DX009 (ip), vehicle: saline.
Where [13] appears, read: dose: 50.0 mg/kg/injection, schedule: Q04DX003 (ip), vehicle: saline.
The mark [14] stands for this setting: dose: 100.0 mg/kg/injection, schedule: Q04DX003 (ip), vehicle: saline.
The mark [15] stands for this setting: dose: 100.0 mg/kg/injection, schedule: Q04DX003 (ip), vehicle: saline with Tween-80.
The mark [16] stands for this setting: dose: 200.0 mg/kg/injection, schedule: Q04DX003 (ip), vehicle: saline with Tween-80.
Setting [17] is: dose: 400.0 mg/kg/injection, schedule: Q04DX003 (ip), vehicle: saline with Tween-80.
[18] abbreviates: dose: 100.0 mg/kg/injection, schedule: Q01DX009 (ip), vehicle: saline.

Turning to `O=C1C2CCN(CC2)C1Cn1cnc2c(Cl)ncnc21` (stereo not drawn), the T/C is, setting by setting: under setting [1], 95 % of control; under setting [2], 98 % of control.

As for `O=S(=O)(O)Cc1ccccc1O`, the T/C was 96 % of control under setting [3], 102 % of control under setting [4] and 93 % of control under setting [5].

Turning to `Cc1ccc(OC/C=C/CS(=O)(=O)c2ccc(C)cc2)cc1`, the T/C (dose: 50.0 mg/kg/injection, schedule: Q01DX009 (ip), vehicle: Klucel (hydroxypropylcellulose) (HPC)) was 100 % of control; the T/C (dose: 75.0 mg/kg/injection, schedule: Q01DX001 (ip), vehicle: Klucel (hydroxypropylcellulose) (HPC)) is 93 % of control; the T/C under setting [6] was 98 % of control; the T/C (dose: 150.0 mg/kg/injection, schedule: Q01DX001 (ip), vehicle: Klucel (hydroxypropylcellulose) (HPC)) was 98 % of control; the T/C under setting [7] was 98 % of control; the T/C (dose: 300.0 mg/kg/injection, schedule: Q01DX001 (ip), vehicle: Klucel (hydroxypropylcellulose) (HPC)) was 95 % of control.

Consider `CN=C(N/N=C/c1ccccc1)N(C)C`, for which the T/C is 107 % of control (dose: 25.0 mg/kg/injection, schedule: Q04DX003 (ip), vehicle: Klucel (hydroxypropylcellulose) (HPC)); 100 % of control (dose: 50.0 mg/kg/injection, schedule: Q04DX003 (ip), vehicle: Klucel (hydroxypropylcellulose) (HPC)); 98 % of control (dose: 87.5 mg/kg/injection, schedule: Q04DX003 (ip), vehicle: Klucel (hydroxypropylcellulose) (HPC)).

For the compound `CCCCCCCCCCCC(=O)NN`, the T/C (dose: 18.8 mg/kg/injection, schedule: Q01DX009 (ip), vehicle: carboxymethylcellulose (CMC)) is 105 % of control; the T/C (dose: 37.5 mg/kg/injection, schedule: Q01DX009 (ip), vehicle: carboxymethylcellulose (CMC)) was 96 % of control; the T/C (dose: 75.0 mg/kg/injection, schedule: Q01DX009 (ip), vehicle: carboxymethylcellulose (CMC)) is 109 % of control and 114 % of control; the T/C under setting [8] is 98 % of control; the T/C under setting [9] was 104 % of control; the T/C under setting [10] was 106 % of control.

Turning to `Nc1cc2c(cc1Br)-c1c(C(=O)O)cccc1C2=O`, the T/C by setting is: (dose: 75.0 mg/kg/injection, schedule: Q01DX001 (ip), vehicle: carboxymethylcellulose (CMC)) 101 % of control; (dose: 150.0 mg/kg/injection, schedule: Q01DX001 (ip), vehicle: carboxymethylcellulose (CMC)) 95 % of control; (dose: 300.0 mg/kg/injection, schedule: Q01DX001 (ip), vehicle: carboxymethylcellulose (CMC)) 98 % of control.

In the case of `CSc1nccc(=O)n1C`, the T/C is 96 % of control (dose: 12.5 mg/kg/injection, schedule: Q01DX009 (ip), vehicle: saline); 96 % of control under setting [11]; 98 % of control (dose: 25.0 mg/kg/injection, schedule: Q04DX003 (ip), vehicle: saline); 101 % of control under setting [12]; 106 % of control under setting [13]; 107 % of control under setting [14].

Take `CCCCCCCCCCCCCCCCOc1ccc(C2=NCC(C)S2)c(C)c1` (stereo not drawn): the T/C is 101 % of control under setting [6]; 96 % of control under setting [7]; 97 % of control (dose: 400.0 mg/kg/injection, schedule: Q01DX009 (ip), vehicle: Klucel (hydroxypropylcellulose) (HPC)).

Take `COc1ccccc1OC(=O)c1ccccc1O`: the T/C under setting [8] was 107 % of control; the T/C under setting [14] is 90 % of control; the T/C under setting [9] was 100 % of control; the T/C (dose: 200.0 mg/kg/injection, schedule: Q04DX003 (ip), vehicle: saline) was 90 % of control; the T/C under setting [10] was 94 % of control; the T/C (dose: 400.0 mg/kg/injection, schedule: Q04DX003 (ip), vehicle: saline) is 88 % of control.

On to `O=C1CSCc2nc3ccccc3n21`, for which the T/C under setting [3] was 97 % of control; the T/C under setting [15] is 106 % of control; the T/C under setting [4] is 100 % of control; the T/C under setting [16] is 103 % of control; the T/C under setting [5] was 100 % of control; the T/C under setting [17] is 97 % of control.

As to `O=C(CCc1ccc(C(=O)Nc2ccc(C3=NCCCN3)cc2)cc1)Nc1ccc(C2=NCCCN2)cc1`, the T/C reads like this: (dose: 0.37 mg/kg/injection, schedule: Q01DX Z (ip), vehicle: water) 98 % of control; (dose: 0.75 mg/kg/injection, schedule: Q01DX Z (ip), vehicle: water) 108 % of control; (dose: 1.0 mg/kg/injection, schedule: Q01DX Z (ip), vehicle: water) 121 % of control; (dose: 4.0 mg/kg/injection, schedule: Q01DX Z (ip), vehicle: water) 232 % of control; (dose: 8.0 mg/kg/injection, schedule: Q01DX Z (ip), vehicle: water) 270 % of control; (dose: 25.0 mg/kg/injection, schedule: Q01DX Z (oral), vehicle: water) 102 % of control. In addition, the T/C reads like this: (dose: 50.0 mg/kg/injection, schedule: Q01DX Z (oral), vehicle: water) 93 % of control; (dose: 100.0 mg/kg/injection, schedule: Q01DX Z (oral), vehicle: water) 93 % of control; (dose: 200.0 mg/kg/injection, schedule: Q01DX Z (oral), vehicle: water) 102 % of control.

As to `Cc1ccc(CNC2=C(Cl)C(=O)c3ccccc3C2=O)cc1C`, the T/C by setting is: (dose: 12.5 mg/kg/injection, schedule: Q04DX002 (ip), vehicle: Klucel (hydroxypropylcellulose) (HPC)) 92 % of control; (dose: 25.0 mg/kg/injection, schedule: Q04DX002 (ip), vehicle: Klucel (hydroxypropylcellulose) (HPC)) 87 % of control.

For the compound `COc1ccc(CCS(=O)(=O)N=[N+]=[N-])cc1`, the T/C under setting [15] was 104 % of control, the T/C under setting [16] is 116 % of control and the T/C under setting [17] was 112 % of control.

Turning to `CCOC(=O)/C=C(\CC(=O)OCC)Nc1ccc(OC)cc1`, the T/C by setting is: under setting [12], 89 % of control; under setting [18], 91 % of control; (dose: 100.0 mg/kg/injection, schedule: Q04DX003 (ip), vehicle: acetone) 91 % of control; (dose: 200.0 mg/kg/injection, schedule: Q04DX003 (ip), vehicle: acetone) 100 % of control; (dose: 400.0 mg/kg/injection, schedule: Q04DX003 (ip), vehicle: acetone) 97 % of control.

As for `CC1(C)N=C(N)N=C(N)N1c1ccc(OCCNC(=O)Nc2ccc(S(=O)(=O)F)cc2)c(Cl)c1`, the T/C is, setting by setting: under setting [11], 102 % of control; under setting [12], 105 % of control; under setting [18], 113 % of control.

As for `CCc1ccc2c(OC(C)=O)c3ccccc3c(OC(C)=O)c2c1`, the T/C was 95 % of control (dose: 100.0 mg/kg/injection, schedule: Q01DX001 (ip), vehicle: saline with Tween-80); 95 % of control (dose: 200.0 mg/kg/injection, schedule: Q01DX001 (ip), vehicle: saline with Tween-80); 93 % of control (dose: 400.0 mg/kg/injection, schedule: Q01DX001 (ip), vehicle: saline with Tween-80).

In the case of `CCN(CC)/N=C/CC(C)Nc1ccnc2cc(Cl)ccc12` (stereo not drawn), the T/C reads like this: (dose: 3.12 mg/kg/injection, schedule: Q01DX009 (ip), vehicle: acetone) 92 % of control; (dose: 6.25 mg/kg/injection, schedule: Q01DX009 (ip), vehicle: acetone) 97 % of control; (dose: 12.5 mg/kg/injection, schedule: Q04DX003 (ip), vehicle: saline) 93 % of control.

As for `COC(=O)c1ccccc1Cc1cccc2c(Cl)cccc12`, the T/C runs as follows: under setting [1], 97 % of control; under setting [2], 98 % of control; (dose: 400.0 mg/kg/injection, schedule: Q01DX001 (ip), vehicle: Klucel (hydroxypropylcellulose) (HPC)) 106 % of control.

Regarding `C=C(Br)CNC(=O)NCCCl`, the T/C was 90 % of control under setting [1] and 96 % of control under setting [2].

Take `O=S1(=O)C=C(Cl)C(Cl)C1` (stereo not drawn): the T/C is, setting by setting: under setting [11], 93 % of control; under setting [12], 86 % of control; under setting [13], 95 % of control; under setting [8], 93 % of control; under setting [14], 92 % of control; under setting [9], 102 % of control.
